Data set [1] is described as follows: Dynamic vapor sorption (DVS) / moisture sorption analysis. It counts as physicochemical. Conditions: for Moisture Sorption (wt % water): listed as Free Form A; for hygroscopicity / moisture uptake at 60% RH / moisture uptake at 90% RH: DVS; for moisture uptake at 60% RH / moisture uptake at 90% RH: about 25° C. The procedure:
Compounds and polymorphs provided herein can be characterized by moisture sorption analysis. This analysis was performed using a Hiden IGAsorp Moisture Sorption instrument. Moisture sorption experiments were carried out at about 25° C. by performing an adsorption scan from about 40% to about 90% RH in steps of about 10% RH and a desorption scan from about […] to about 0% RH in steps of about −10% RH. A second adsorption scan from about 10% to about 40% RH was performed to determine the moisture uptake from a drying state to the starting humidity. Samples were allowed to equilibrate for about four hours at each point or until an asymptotic weight was reached. After the isothermal sorption scan, samples were dried for about one hour at elevated temperature (about 60° C.) to obtain the dry weight. XRPD analysis on the material following moisture sorption was performed to determine the solid form.
Dynamic vapor sorption (DVS) analysis was performed on polymorph Forms A, B, C, D, and E using the DVS instrument and parameters as described above. […] Hysteresis indicative of hemi-hydrate formation was observed.

Data set [2] in a line: Thermal stability (60° C.). Conditions: for polymorph Form changes by XRPD: held at 60° C. for 10 days.
Procedure: (§1) Forms A, B, C, D, and E were held at 60° C. for 10 days followed by analysis by XRPD. In each case, 8 mL vials were charged with approximately 20 mg of material, with the exception of Form B for which 10 mg of material was charged. Samples equilibrated in an oven for 10 days.
Data set [3] is described as follows: Solubility of polymorph Forms (H2O, SGF). It counts as physicochemical.
Data set [4] can be described thus: Stability studies of packaged polymorph Forms (temperature and humidity storage). The note with it: Double LDPE bags in fiberboard drum; 40° C. ± 2° C./75% RH ± 5% RH; 1, 2, 3, 6, and 12 months; HPLC, Karl Fischer, XRPD. It counts as physicochemical. The source says:
Polymorphs Form A and Form C were subjected to stability studies where several samples of each given Form were packaged and subjected to the given temperature and humidity conditions as described in Table 10. At each timepoint, a sample for that study was opened and evaluated by HPLC for purity, Karl Fischer for moisture content, and XRPD for confirming the polymorph Form.

Data set [5] can be described thus: Hold in humidity chambers at 9% RH and 95% RH. It counts as physicochemical. Conditions: after 1 week.
Data set [6] can be described thus: Drying of Form A at 70° C. It counts as physicochemical. Conditions: Drying at 70° C. for six days. Here is the method: 1. Procedure from CH2Cl2 and from IPA: Form C (1 g) was slurried in five volumes of dichloromethane. After holding for 15 hours, filtration, and drying, Form A was isolated in 82% yield. Scale-up was performed on a 20 g scale with a water-wet cake of Form C to yield Form A in 92% yield. […] Slurrying dry Form C in isopropyl alcohol using a similar method also yielded Form A.

The nature of data set [7]: Salt screen: solubility in water. Conditions: listed as Free Form A. It counts as physicochemical. The source says:
Salts of a compound of Formula (I) were formed with L-tartaric acid, p-toluenesulfonic acid, D-glucaronic acid, ethane-1,2-disulfonic acid (EDSA), 2-naphthalenesulfonic acid (NSA), hydrochloric acid (HCl) (mono and bis), hydrobromic acid (HBr), citric acid, naphthalene-1,5-disulfonic acid (NDSA), DL-mandelic acid, fumaric acid, sulfuric acid, maleic acid, methanesulfonic acid (MSA), benzenesulfonic acid (BSA), ethanesulfonic acid (ESA), L-malic acid, phosphoric acid, and aminoethanesulfonic acid (taurine).

A short description of data set [8]: Grinding stability (mortar and pestle). It counts as physicochemical. Conditions: for Grinding (mortar & pestle): by hand, 2 and 5 min, XRPD. The procedure:
Forms A, C, D, and E were subjected to grinding experiments performed using a mortar and pestle by hand. Samples were lightly grounded for 2 minutes then analyzed by XRPD. Material was then returned to the mortar and pestle and grounded for an additional 3 minutes, for a total of 5 minutes of grinding, and re-analyzed by XRPD.

For data set [9] the following is noted: 1 week.
Procedure: as §1
The test system of data set [10] is B6.Sle1z.Sle3z model. Conditions: cited from earlier work.
The conditions of data set [11]: PBS at pH 7.4, 37° C., 24 hours, 5 μM; cited from earlier work.
The subject of data set [12] is leukemic cells from early passage p190 transduced cultures. Conditions: at about 70 mg/kg twice daily; cited from earlier work.

Each structure is given as a SMILES string. Where two headings read alike, the source gives them in different places.

We go through five compounds from patent publication US11312718B2, “Formulations of (S)-3-(1-(9H-purin-6-ylamino)ethyl)-8-chloro-2-phenylisoquinolin-1(2H)-one” (Infinity Pharmaceuticals, Inc., priority 2011, dated 2022).

Turning to `C[C@H](Nc1ncnc2[nH]cnc12)c1cc2cccc(Cl)c2c(=O)n1-c1ccccc1` [Form A, (S)-3-(1-(9H-purin-6-ylamino)ethyl)-8-chloro-2-phenylisoquinolin-1(2H)-one], the entries for the “Moisture Sorption (wt % water)” value in data set [1] (60% RH) and in data set [1] (90% RH) were 60% RH: 0.7 wt % water and 90% RH: 2.6 wt % water, respectively. The DVS was 0.7% @ 60% RH in data set [1] (@ 60% RH) and 2.6% @ 90% RH in data set [1] (@ 90% RH). In addition, the hygroscopicity result in data set [1] was “slightly hygroscopic”. Also, in data set [1] (60% RH), the “moisture uptake at 60% RH” value worked out at 0.7 wt %. In addition, in data set [1] (90% RH), the “moisture uptake at 90% RH” value stood at 2.6 wt %. For the same compound, the “Thermal stability (60° C.)” value in data set [2] (60° C., after 1 week) is given as “stable after 1”. In addition, the “polymorph Form changes by XRPD” value in data set [2] is on record as “No polymorph Form changes were observed”. In addition, the “Solubility (mg/mL)” value in data set [3] (H2O) is listed as 0.030 (H2O) mg/mL; in data set [3] (SGF) it was 21.800 (SGF) mg/mL. For the same compound, the “instability of the polymorphic Form” value in data set [4] is listed as “no indication of instability of the polymorphic Form”. Also, in data set [5], the “changes in Form” value is on record as “no changes in Form”. Also, in data set [6], the “degradation in chemical or chiral purity” value is reported as “no degradation in chemical or chiral purity”. The “Solubility in water” value in data set [7] was determined as 30 µg/mL. Also, the “Form by XRPD after grinding” value in [8] (after both 2 and 5 minutes of grinding by hand) is “remain consistent”. In addition, in [8], the “Grinding (mortar & pestle)” value is reported as “remained Form”.

With `C[C@H](Nc1ncnc2[nH]cnc12)c1cc2cccc(Cl)c2c(=O)n1-c1ccccc1` [Form E, (S)-3-(1-(9H-purin-6-ylamino)ethyl)-8-chloro-2-phenylisoquinolin-1(2H)-one], the values for the DVS in [1] (@ 60% RH) and in data set [1] (@ 90% RH) were 1.9% @ 60% RH and 2.2% @ 90% RH, respectively. The hygroscopicity result in data set [1] was “slightly hygroscopic”. Further, the “moisture uptake at 60% RH” value in data set [1] (60% RH) is recorded as 1.9 wt %. Moreover, the “moisture uptake at 90% RH” value in data set [1] (90% RH) amounted to 2.2 wt %. Further, the “polymorph Form changes by XRPD” value in [2] was “No polymorph Form changes were observed”. Moreover, in data set [9], the “Thermal stability (60° C.)” value is “stable after 1”. The “Grinding (mortar & pestle)” value in data set [8] is “amorphous”.

As for `CO[C@H]1C[C@@H]2CC[C@@H](C)[C@@](O)(O2)C(=O)C(=O)N2CCCC[C@H]2C(=O)O[C@H]([C@H](C)C[C@@H]2CC[C@@H](OCCO)[C@H](OC)C2)CC(=O)[C@H](C)/C=C(\C)[C@@H](O)[C@@H](OC)C(=O)[C@H](C)C[C@H](C)/C=C/C=C/C=C/1C` [RAD001], the lupus symptoms result in data set [10] is listed as “ameliorate lupus symptoms”.

As for `O=C(O)CCCc1ccc(N(CCCl)CCCl)cc1` [chlorambucil], the chemical stability entry in data set [11] is “largely hydrolyzed”.

On to `Cc1ccc(NC(=O)c2ccc(CN3CCN(C)CC3)cc2)cc1Nc1nccc(-c2cccnc2)n1` [imatinib], for which the leukemogenesis result in data set [12] is “delay but not cure leukemogenesis”.
